The values that follow come from patent US20250002475A1 (EPICS THERAPEUTICS, priority 2023, published 2025).

Assay [1] addresses T1, recombinant METTL3/METTL14 complex (Homo sapiens, UniProt Q86U44).
T1 construct: purchased Active Motif 311970; host or cells: Sf9 cells
Nature of the assay: METTL3/14 Scintillation Proximity Assay (SPA), RNA methyltransferase activity. As to conditions: 5.31 nM METTL3/14 complex, 250 nM RNA substrate, 1 μM 3H-SAM, 90 min; for compounds marked * best of the two separated forms. Format: biochemical. (Scintillation proximity formats need no separation of bound from free tracer.)

A further assay relates to Kasumi-1 cells. Put plainly: Kasumi-1 cellular viability assay (ATP-Lite, 72 h). Format: cell-based. Conditions: Homo sapiens, ATP-Lite luminescence, % viability relative to DMSO. The procedure, abridged:
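Kasumi-1 AML cells, 15000/well in RPMI-1640 with 10% FBS, were exposed to compound titrations (0.1% final DMSO) for 72 h at 37 °C, 5% CO2. ATP-Lite One Step luminescence gave % viability versus DMSO control, and IC50 came from the concentration-response.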

Another assay relates to Caov-3 cells. Nature of the assay: Caov-3 cellular viability assay (ATP-Lite, 72 h). Conditions: Homo sapiens, ATP-Lite luminescence, % viability relative to DMSO. Format: cell-based. The essentials:
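10000 cells/well treated 72 h at 37 °C, 5% CO2, in RPMI-1640 with 10% FBS and 0.1% DMSO final. Viability by ATP-Lite One Step luminescence. Expressed as % of DMSO control, with IC50 from each compound's concentration-response curve.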

T1 sequence (Q86U44 whole entry): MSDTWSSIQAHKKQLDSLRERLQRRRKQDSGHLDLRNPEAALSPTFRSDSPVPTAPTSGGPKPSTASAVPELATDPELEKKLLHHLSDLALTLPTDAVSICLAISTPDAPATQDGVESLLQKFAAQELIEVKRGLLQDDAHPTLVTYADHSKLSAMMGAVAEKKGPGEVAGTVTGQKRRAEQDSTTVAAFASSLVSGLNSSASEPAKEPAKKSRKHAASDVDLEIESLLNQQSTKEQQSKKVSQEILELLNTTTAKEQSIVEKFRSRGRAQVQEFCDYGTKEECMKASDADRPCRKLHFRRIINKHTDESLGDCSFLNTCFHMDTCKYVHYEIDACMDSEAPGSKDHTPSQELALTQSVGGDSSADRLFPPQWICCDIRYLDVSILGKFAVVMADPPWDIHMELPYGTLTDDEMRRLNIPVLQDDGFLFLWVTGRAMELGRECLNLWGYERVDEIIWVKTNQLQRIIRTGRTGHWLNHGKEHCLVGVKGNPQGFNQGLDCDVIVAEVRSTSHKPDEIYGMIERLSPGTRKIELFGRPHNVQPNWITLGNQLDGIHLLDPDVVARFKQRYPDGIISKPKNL
T1 sequence (Q9HCE5 whole entry partner): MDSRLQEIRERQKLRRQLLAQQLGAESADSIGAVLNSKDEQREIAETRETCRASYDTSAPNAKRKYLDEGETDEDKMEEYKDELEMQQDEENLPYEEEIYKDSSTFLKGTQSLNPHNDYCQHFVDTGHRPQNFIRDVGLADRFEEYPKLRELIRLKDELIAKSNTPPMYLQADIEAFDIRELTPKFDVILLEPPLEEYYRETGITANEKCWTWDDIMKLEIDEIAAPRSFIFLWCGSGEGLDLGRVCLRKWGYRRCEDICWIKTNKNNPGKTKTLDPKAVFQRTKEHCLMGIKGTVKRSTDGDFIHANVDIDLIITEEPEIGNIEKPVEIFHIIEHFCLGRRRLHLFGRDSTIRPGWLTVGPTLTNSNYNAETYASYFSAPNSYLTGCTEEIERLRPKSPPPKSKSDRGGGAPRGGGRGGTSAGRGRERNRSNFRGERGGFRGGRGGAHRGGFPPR

For orientation: IC50 means the concentration needed to halve the response being measured. Regarding `CC(n1cnc(-c2cncc(N3CCCC3)c2)c1)n1ccc(N2CCC[C@@H](NCC3CC3)C2)cc1=O` (mixture of isomers) [Compound 252, 4-((R)-3-((cyclopropylmethyl)amino)piperidin-1-yl)-1-(1-(4-(5-(pyrrolidin-1-yl)pyridin-3-yl)-1H-imidazol-1-yl)ethyl)pyridin-2(1H)-one], the concentration for half-maximal inhibition (IC50) in assay [1] was not above 50 nM; in the assay with Kasumi-1 cells, not above 500 nM; with Caov-3 cells, not above 500 nM.
Regarding `COc1cc(-c2cn(Cc3ccc(N4CCC[C@@H](NCC56CC(F)(C5)C6)C4)nn3)nn2)c2cn[nH]c2c1` [Compound 018, (R)-N-((3-fluorobicyclo[1.1.1]pentan-1-yl)methyl)-1-(6-((4-(6-methoxy-1H-indazol-4-yl)-1H-1,2,3-triazol-1-yl)methyl)pyridazin-3-yl)piperidin-3-amine], the figures for the IC50 (in assay [1]; with Kasumi-1 cells; in the assay with Caov-3 cells) were not above 50 nM, 500 to 5000 nM and not above 500 nM, respectively.
For `CC(n1cc(-c2cncc(N3CC(C(F)F)C3)c2)nn1)n1ccc(N2CCC[C@@H](NCC3CC3)C2)cc1=O` (single isomer, unassigned) [Compound 209], in that order: not above 50 nM, 500 to 5000 nM and 500 to 5000 nM.
Taken in the same sequence, the figures for `COc1cc(-c2cn(Cn3ncc(N4CCCC(NCC5CCC5)C4)cc3=O)nn2)c2cn[nH]c2c1` (stereo not drawn) [Compound 028, 5-(3-((cyclobutylmethyl)amino)piperidin-1-yl)-2-((4-(6-methoxy-1H-indazol-4-yl)-1H-1,2,3-triazol-1-yl)methyl)pyridazin-3(2H)-one] were not above 50 nM, 500 to 5000 nM and 500 to 5000 nM.
With `CC(n1cc(-c2cncc(N3CCC4(CC4)C3)n2)nn1)n1ccc(N2CCC[C@@H](NCC3CC3)C2)cc1=O` (stereo partly drawn) [Compound 235, 1-(1-(4-(6-(5-azaspiro[2.4]heptan-5-yl)pyrazin-2-yl)-1H-1,2,3-triazol-1-yl)ethyl)-4-((R)-3-((cyclopropylmethyl)amino)piperidin-1-yl)pyridin-2(1H)-one], the IC50 in assay [1] was not above 50 nM; with Kasumi-1 cells, not above 500 nM; in the assay on Caov-3 cells it was not above 500 nM.
On to `CC1(CN[C@@H]2CCCN(c3ccc(C4(c5nnc(-c6cncc(C7CC7)c6)s5)COC4)nc3)C2)CC1` [Compound 368, (R)-1-(6-(3-(5-(5-cyclopropylpyridin-3-yl)-1,3,4-thiadiazol-2-yl)oxetan-3-yl)pyridin-3-yl)-N-((1-methylcyclopropyl)methyl)piperidin-3-amine], for which the 50% inhibitory concentration (IC50) was not above 50 nM in assay [1], not above 500 nM with Kasumi-1 cells and not above 500 nM in the assay on Caov-3 cells.
`CC(n1cc(-c2cncc(N(C)CC(F)(F)F)c2)nn1)n1ccc(N2CCC[C@@H](NCC3CCC3)C2)cc1=O` (single isomer, unassigned) [Compound 154]: the values for the IC50 (in assay [1]; with Kasumi-1 cells; with Caov-3 cells) were not above 50 nM, not above 500 nM and not above 500 nM, respectively.
For the molecule `FC1(CN[C@@H]2CCCN(c3ccc(C4(n5cc(-c6cncc(C7CC7)c6)nn5)COC4)nc3)C2)CC1` [Compound 332, (R)-1-(6-(3-(4-(5-cyclopropylpyridin-3-yl)-1H-1,2,3-triazol-1-yl)oxetan-3-yl)pyridin-3-yl)-N-((1-fluorocyclopropyl)methyl)piperidin-3-amine], the IC50 was not above 50 nM in assay [1], not above 500 nM in the assay on Kasumi-1 cells and not above 500 nM in the assay with Caov-3 cells.
For the molecule `COc1cc(-c2cn(Cc3cnc(N4CCCC(NCC5CCC5)C4)s3)nn2)c2cn[nH]c2c1` (stereo not drawn) [Compound 026, N-(cyclobutylmethyl)-1-(5-((4-(6-methoxy-1H-indazol-4-yl)-1H-1,2,3-triazol-1-yl)methyl)thiazol-2-yl)piperidin-3-amine], the concentration for half-maximal inhibition (IC50) in assay [1] was not above 50 nM; in the assay on Kasumi-1 cells, 500 to 5000 nM; with Caov-3 cells, more than 5000 nM.
For the molecule `CC(C)(c1ccc(N2CCC[C@@H](NCC3CC3)C2)cn1)c1nnc(-c2cncc(C3CC3)c2)s1` [Compound 363, (R)-N-(cyclopropylmethyl)-1-(6-(2-(5-(5-cyclopropylpyridin-3-yl)-1,3,4-thiadiazol-2-yl)propan-2-yl)pyridin-3-yl)piperidin-3-amine], the values for the IC50 (in assay [1]; in the assay on Kasumi-1 cells; with Caov-3 cells) were not above 50 nM, 500 to 5000 nM and 500 to 5000 nM, respectively.
As for `CC(c1ccc(N2CCC[C@@H](NCC3CC3)C2)cn1)c1nnc(-c2cncc(N3CCCC3)n2)s1` (single isomer, unassigned) [Compound 360], the IC50 in assay [1] is not above 50 nM; with Kasumi-1 cells it was not above 500 nM; in the assay with Caov-3 cells, not above 500 nM.
With `c1nnc(-c2cn(C3(c4ccc(N5CCC[C@@H](NCC6CC6)C5)cn4)COC3)nn2)cc1C1CC1` [Compound 343, (R)-N-(cyclopropylmethyl)-1-(6-(3-(4-(5-cyclopropylpyridazin-3-yl)-1H-1,2,3-triazol-1-yl)oxetan-3-yl)pyridin-3-yl)piperdin-3-amine], the results for the IC50 (in assay [1]; in the assay with Kasumi-1 cells; in the assay with Caov-3 cells) were not above 50 nM, 500 to 5000 nM and not above 500 nM, respectively.
For `FC1(F)CCN(c2cncc(-c3cn(C4(c5ccc(N6CCC[C@@H](NCC7CC7)C6)cn5)COC4)nn3)n2)C1` [Compound 215, (R)-N-(cyclopropylmethyl)-1-(6-(3-(4-(6-(3,3-difluoropyrrolidin-1-yl)pyrazin-2-yl)-1H-1,2,3-triazol-1-yl)oxetan-3-yl)pyridin-3-V)piperidin-3-amine], in that order: not above 50 nM, not above 500 nM and not above 500 nM.
Take `CC(n1cc(-c2cncc(N(C)C)c2)nn1)n1ccc(N2CCC[C@@H](NCC3CC3)C2)cc1=O` (single isomer, unassigned) [Compound 142]: the IC50 in assay [1] was not above 50 nM; with Kasumi-1 cells, not above 500 nM; in the assay on Caov-3 cells it was not above 500 nM.
In the case of `O=C(NCc1ccc(N2CCC[C@@H](NCC3CCC3)C2)nn1)c1cc(=O)n2ccsc2n1` [Compound 010, (R)-N-((6-(3-((cyclobutylmethyl)amino)piperidin-1-yl)pyridazin-3-yl)methyl)-5-oxo-5H-thiazolo[3,2-a]pyrimidine-7-carboxamide], the IC50 was 50 to 500 nM in assay [1], more than 5000 nM in the assay with Kasumi-1 cells and more than 5000 nM in the assay with Caov-3 cells.
For the molecule `c1ncc(C2CC2)cc1-c1cn(C2(c3ccc(N4CCC[C@@H](NCC5CC5)C4)cn3)COC2)nn1` [Compound 256, (R)-N-(cyclopropylmethyl)-1-(6-(3-(4-(5-cyclopropylpyridin-3-yl)-1H-1,2,3-triazol-1-yl)oxetan-3-yl)pyridin-3-yl)piperidin-3-amine], the figures for the IC50 (in assay [1]; in the assay on Kasumi-1 cells; with Caov-3 cells) were not above 50 nM, not above 500 nM and not above 500 nM, respectively.
Regarding `CC(n1cnc(-c2cncc(N(C)C)c2)c1)n1ccc(N2CCC[C@@H](NCC3CCC3)C2)cc1=O` (single isomer, unassigned) [Compound 166], the IC50 in assay [1] was not above 50 nM; with Kasumi-1 cells, not above 500 nM; in the assay with Caov-3 cells it was not above 500 nM.
Turning to `CC(n1cc(-c2cc(N3CCCC3)cnn2)nn1)n1ccc(N2CCC[C@@H](NCC3CC3)C2)cc1=O` (single isomer, unassigned) [Compound 206], the IC50 in assay [1] is not above 50 nM; in the assay on Kasumi-1 cells it was 500 to 5000 nM; in the assay with Caov-3 cells it was not above 500 nM.
As to `COc1cncc(-c2cn(C(C)n3ncc(N4CCC[C@@H](NCC5CCC5)C4)cc3=O)nn2)c1` (stereo partly drawn) [Compound 067, 5-((R)-3-((cyclobutylmethyl)amino)piperidin-1-yl)-2-(1-(4-(5-methoxypyridin-3-yl)-1H-1,2,3-triazol-1-yl)ethyl)pyridazin-3(2H)-one], the half-inhibitory concentration (IC50) in assay [1] was not above 50 nM; in the assay with Kasumi-1 cells, 500 to 5000 nM; with Caov-3 cells it was 500 to 5000 nM.
Turning to `c1cc(C2(n3cc(-c4cncc(C5CC5)n4)nn3)COC2)ncc1N1CCC[C@@H](NCC2CCC2)C1` [Compound 283, (R)-N-(cyclobutylmethyl)-1-(6-(3-(4-(6-cyclopropylpyrazin-2-yl)-1H-1,2,3-triazol-1-yl)oxetan-3-yl)pyridin-3-yl)piperidin-3-amine], the 50% inhibitory concentration (IC50) in assay [1] is not above 50 nM; in the assay with Kasumi-1 cells, not above 500 nM; in the assay on Caov-3 cells it was not above 500 nM.
With `COc1cncc(-c2cn(C(C)c3ccc(N4CCC[C@@H](NCC5CCC5)C4)nn3)cn2)c1` (stereo partly drawn) [Compound 182, (3R)—N-(cyclobutylmethyl)-1-(6-(1-(4-(5-methoxypyridin-3-yl)-1H-imidazol-1-yl)ethyl)pyridazin-3-yl)piperidin-3-amine], the IC50 was not above 50 nM in assay [1], 500 to 5000 nM with Kasumi-1 cells and not above 500 nM in the assay on Caov-3 cells.
Taken in the same sequence, the figures for `COc1cncc(-c2cn(C(C)c3ccc(N4CCC[C@@H](NCC5CCC5)C4)nc3)nn2)c1` (single isomer, unassigned) [Compound 071] were not above 50 nM, 500 to 5000 nM and 500 to 5000 nM.
For `CC(C)Nc1cncc(-c2cn(C(C)n3ccc(N4CCC[C@@H](NCC5CCC5)C4)cc3=O)nn2)c1` (single isomer, unassigned) [Compound 158], in that order: not above 50 nM, not above 500 nM and not above 500 nM.
On to `c1ncc(-c2cn(C3(c4ccc(N5CCC[C@@H](NCC6CCC6)C5)cn4)COC3)nn2)cc1OC1CCC1` [Compound 307, (R)-1-(6-(3-(4-(5-cyclobutoxypyridin-3-yl)-1H-1,2,3-triazol-1-yl)oxetan-3-yl)pyridin-3-yl)-N-(cyclobutylmethyl)piperidin-3-amine], for which the figures for the half-inhibitory concentration (IC50) (in assay [1]; in the assay on Kasumi-1 cells; in the assay on Caov-3 cells) were not above 50 nM, not above 500 nM and not above 500 nM, respectively.
